Reference: PMC8371461 (Frontiers in Pharmacology, 2021)

Tests used:
[1] = biological target: T1, PLK2 (Homo sapiens, UniProt Q9NYY3); assay: kinome scan; format: binding; details: 10 µM
T1 construct: purchased DiscoverX (KINOMEscan)

[2] = tested on: CGR8EF1αS,RLuc-Tα1,FLuc cells; assay: cell viability by propidium iodide; format: cell-based, mouse; details: up to 10 µM, 72 h
Method: The CGR8 mouse PSC were cultured as described ([Suter et al., 2009]). For neural induction, CGR8 cells were plated in 96-well plates at a density of 10,000 cells/cm^2 on gelatine-coated cell culture plates, in differentiation medium [BHK-21 medium supplemented with 20% foetal calf serum (Thermofisher), L-glutamine 2 mM (Thermofisher), non-essential amino acids (1X, Thermofisher), sodium pyruvate 1 mM (Thermofisher), penicillin/streptomycin 50 U/ml (Thermofisher)]. CGR8EF1αS,RLuc-Tα1,FLuc cells were described in ([Suter et al., 2009]) and were cultured as described above. Luminescence assays were directly performed in 96-well plates with the Dual Luciferase Reporter Assay System (Promega) according to the manufacturer’s instructions. Luminescence was measured with the SpectraMax L Microplate luminometer (Molecular Devices). Cell viability in the wells was measured by the addition of propidium iodide 1 µg/ml in 100 µL of PBS and fluorescence was assessed in each well using a FluoStar Optima reader (Pharmaceutical Technology Group at the University of Geneva).
After two days, cells were lysed for the quantification of intracellular ATP. […] After three days, cells were lysed for the quantification of F-luminescence (FLuc) and R-luminescence (RLuc) in the presence of the respective substrates.

[3] = biological target: T2, DDR2 (Homo sapiens, UniProt Q16832); assay: kinome scan; format: binding; details: 10 µM
T2 construct: purchased DiscoverX (KINOMEscan)

[4] = biological target: T3, EGFR(L858RT790M) (Homo sapiens, UniProt P00533, L858R/T790M); assay: kinome scan; format: binding; details: 10 µM
T3 construct: purchased DiscoverX (KINOMEscan)

[5] = biological target: T4, CAMK2B (Homo sapiens, UniProt Q13554); assay: kinome scan; format: binding; details: 10 µM
T4 construct: purchased DiscoverX (KINOMEscan)

[6] = biological target: T5, YANK2 (Homo sapiens, UniProt Q9NY57); assay: kinome scan; format: binding; details: 10 µM
T5 construct: purchased DiscoverX (KINOMEscan)

[7] = biological target: T6, STK35 (Homo sapiens, UniProt Q8TDR2); assay: kinome scan; format: binding; details: 10 µM
T6 construct: purchased DiscoverX (KINOMEscan)

[8] = biological target: T7, TIE1 (Homo sapiens, UniProt P35590); assay: kinome scan; format: binding; details: 10 µM
T7 construct: purchased DiscoverX (KINOMEscan)

[9] = biological target: T8, CSNK1G3 (Homo sapiens, UniProt Q9Y6M4); assay: kinome scan; format: binding
T8 construct: purchased DiscoverX (KINOMEscan)

[10] = biological target: T9, CSNK2A2 (Homo sapiens, UniProt P19784); assay: kinome scan; format: binding; details: 10 µM
T9 construct: purchased DiscoverX (KINOMEscan)

[11] = biological target: T10, MAK (Homo sapiens, UniProt P20794); assay: kinome scan; format: binding; details: 10 µM
T10 construct: purchased DiscoverX (KINOMEscan)

[12] = biological target: T11, GRK1 (Homo sapiens, UniProt Q15835); assay: kinome scan; format: binding; details: 10 µM
T11 construct: purchased DiscoverX (KINOMEscan)

[13] = biological target: T12, RSK1(Kin.Dom.1-N-terminal) (Homo sapiens, UniProt Q15418); assay: kinome scan; format: binding; details: 10 µM
T12 construct: RSK1(Kin.Dom.1-N-terminal); purchased DiscoverX (KINOMEscan)

[14] = biological target: T13, TGFBR1 (Homo sapiens, UniProt P36897); assay: kinome scan; format: binding; details: 10 µM
T13 construct: purchased DiscoverX (KINOMEscan)

[15] = biological target: T14, YANK3 (Homo sapiens, UniProt Q86UX6); assay: kinome scan; format: binding; details: 10 µM
T14 construct: purchased DiscoverX (KINOMEscan)

[16] = biological target: T15, MST4 (Homo sapiens, UniProt Q9P289); assay: kinome scan; format: binding; details: 10 µM
T15 construct: purchased DiscoverX (KINOMEscan)

[17] = biological target: T16, RET(V804L) (Homo sapiens, UniProt P07949, V804L); assay: kinome scan; format: binding; details: 10 µM
T16 construct: purchased DiscoverX (KINOMEscan)

[18] = biological target: T17, TYK2(JH2domain-pseudokinase) (Homo sapiens, UniProt P29597); assay: kinome scan; format: binding
T17 construct: TYK2(JH2domain-pseudokinase); purchased DiscoverX (KINOMEscan)

[19] = biological target: T18, TRKB (Homo sapiens, UniProt Q16620); assay: kinome scan; format: binding; details: 10 µM
T18 construct: purchased DiscoverX (KINOMEscan)

[20] = biological target: T19, PIK3CG (Homo sapiens, UniProt P48736); assay: kinome scan; format: binding
T19 construct: purchased DiscoverX (KINOMEscan)

[21] = biological target: T20, MAPKAPK5 (Homo sapiens, UniProt Q8IW41); assay: kinome scan; format: binding; details: 10 µM
T20 construct: purchased DiscoverX (KINOMEscan)

[22] = biological target: T21, SLK (Homo sapiens, UniProt Q9H2G2); assay: kinome scan; format: binding; details: 10 µM
T21 construct: purchased DiscoverX (KINOMEscan)

[23] = biological target: T22, CLK3 (Homo sapiens, UniProt P49761); assay: kinome scan; format: binding; details: 10 µM
T22 construct: purchased DiscoverX (KINOMEscan)

[24] = biological target: T23, DRAK2 (Homo sapiens, UniProt O94768); assay: kinome scan; format: binding; details: 10 µM
T23 construct: purchased DiscoverX (KINOMEscan)

[25] = biological target: T24, PYK2 (Homo sapiens, UniProt Q14289); assay: kinome scan; format: binding; details: 10 µM
T24 construct: purchased DiscoverX (KINOMEscan)

[26] = biological target: T25, MARK4 (Homo sapiens, UniProt Q96L34); assay: kinome scan; format: binding; details: 10 µM
T25 construct: purchased DiscoverX (KINOMEscan)

[27] = biological target: T26, INSRR (Homo sapiens, UniProt P14616); assay: kinome scan; format: binding; details: 10 µM
T26 construct: purchased DiscoverX (KINOMEscan)

[28] = biological target: T27, SRPK3 (Homo sapiens, UniProt Q9UPE1); assay: kinome scan; format: binding; details: 10 µM
T27 construct: purchased DiscoverX (KINOMEscan)

[29] = biological target: T28, PAK6 (Homo sapiens, UniProt Q9NQU5); assay: kinome scan; format: binding; details: 10 µM
T28 construct: purchased DiscoverX (KINOMEscan)

[30] = biological target: T29, EPHA7 (Homo sapiens, UniProt Q15375); assay: kinome scan; format: binding; details: 10 µM
T29 construct: purchased DiscoverX (KINOMEscan)

[31] = biological target: T30, FGFR3(G697C) (Homo sapiens, UniProt P22607, G697C); assay: kinome scan; format: binding; details: 10 µM
T30 construct: purchased DiscoverX (KINOMEscan)

[32] = biological target: T31, CDKL1 (Homo sapiens, UniProt Q00532); assay: kinome scan; format: binding; details: 10 µM
T31 construct: purchased DiscoverX (KINOMEscan)

[33] = biological target: T32, MAPKAPK2 (Homo sapiens, UniProt P49137); assay: kinome scan; format: binding; details: 10 µM
T32 construct: purchased DiscoverX (KINOMEscan)

[34] = biological target: T33, PKN2 (Homo sapiens, UniProt Q16513); assay: kinome scan; format: binding; details: 10 µM
T33 construct: purchased DiscoverX (KINOMEscan)

T19 sequence (P48736 whole entry): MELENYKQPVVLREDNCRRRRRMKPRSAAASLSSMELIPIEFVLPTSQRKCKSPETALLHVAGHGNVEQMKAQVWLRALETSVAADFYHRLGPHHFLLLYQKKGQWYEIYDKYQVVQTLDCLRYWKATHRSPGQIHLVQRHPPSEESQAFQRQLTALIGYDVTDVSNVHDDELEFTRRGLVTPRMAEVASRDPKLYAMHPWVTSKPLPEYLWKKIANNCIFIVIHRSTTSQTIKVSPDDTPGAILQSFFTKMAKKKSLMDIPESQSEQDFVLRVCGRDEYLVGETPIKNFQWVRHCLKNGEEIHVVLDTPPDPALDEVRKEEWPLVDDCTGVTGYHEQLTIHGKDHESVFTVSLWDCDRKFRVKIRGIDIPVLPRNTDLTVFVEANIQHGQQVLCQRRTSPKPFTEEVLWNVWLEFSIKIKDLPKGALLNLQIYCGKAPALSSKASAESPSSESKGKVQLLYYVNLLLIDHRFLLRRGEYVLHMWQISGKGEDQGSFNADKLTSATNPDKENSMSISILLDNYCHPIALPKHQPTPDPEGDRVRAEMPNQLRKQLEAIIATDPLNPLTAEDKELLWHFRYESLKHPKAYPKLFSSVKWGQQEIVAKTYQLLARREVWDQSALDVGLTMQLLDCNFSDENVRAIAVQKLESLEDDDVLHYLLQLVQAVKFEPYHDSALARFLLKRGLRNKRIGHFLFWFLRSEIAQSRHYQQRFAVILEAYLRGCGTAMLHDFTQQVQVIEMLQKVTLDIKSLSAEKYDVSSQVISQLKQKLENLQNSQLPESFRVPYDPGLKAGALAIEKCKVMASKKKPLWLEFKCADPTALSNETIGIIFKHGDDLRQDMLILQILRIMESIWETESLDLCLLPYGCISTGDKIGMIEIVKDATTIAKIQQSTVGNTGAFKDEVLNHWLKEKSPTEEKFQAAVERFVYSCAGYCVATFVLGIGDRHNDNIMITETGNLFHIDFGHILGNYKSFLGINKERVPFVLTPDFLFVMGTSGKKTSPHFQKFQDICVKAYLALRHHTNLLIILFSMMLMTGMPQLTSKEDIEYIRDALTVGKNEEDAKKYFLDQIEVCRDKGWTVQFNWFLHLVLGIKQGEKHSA
T17 sequence (P29597 556-888 limits assumed): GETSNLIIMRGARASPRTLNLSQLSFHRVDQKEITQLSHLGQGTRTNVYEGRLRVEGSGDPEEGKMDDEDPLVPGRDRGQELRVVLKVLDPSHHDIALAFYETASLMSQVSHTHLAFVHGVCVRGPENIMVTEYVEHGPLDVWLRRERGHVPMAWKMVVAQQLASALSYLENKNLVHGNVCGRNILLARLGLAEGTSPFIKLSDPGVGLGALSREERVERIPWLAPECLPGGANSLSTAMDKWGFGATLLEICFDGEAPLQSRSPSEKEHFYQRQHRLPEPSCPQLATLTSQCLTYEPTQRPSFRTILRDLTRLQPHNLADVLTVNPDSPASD
T8 sequence (Q9Y6M4 whole entry): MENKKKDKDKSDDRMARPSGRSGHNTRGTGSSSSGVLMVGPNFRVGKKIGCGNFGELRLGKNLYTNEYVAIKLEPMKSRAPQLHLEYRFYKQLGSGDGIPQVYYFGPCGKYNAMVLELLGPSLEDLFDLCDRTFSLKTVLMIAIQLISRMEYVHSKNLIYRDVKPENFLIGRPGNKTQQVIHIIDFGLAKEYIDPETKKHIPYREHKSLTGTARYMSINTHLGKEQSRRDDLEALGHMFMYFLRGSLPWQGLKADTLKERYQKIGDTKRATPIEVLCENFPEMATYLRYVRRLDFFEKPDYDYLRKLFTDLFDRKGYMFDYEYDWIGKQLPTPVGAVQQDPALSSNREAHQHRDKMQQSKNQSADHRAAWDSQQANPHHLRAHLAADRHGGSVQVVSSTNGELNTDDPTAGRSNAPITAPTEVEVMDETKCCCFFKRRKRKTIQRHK
T30 sequence (P22607 23-806 G697C): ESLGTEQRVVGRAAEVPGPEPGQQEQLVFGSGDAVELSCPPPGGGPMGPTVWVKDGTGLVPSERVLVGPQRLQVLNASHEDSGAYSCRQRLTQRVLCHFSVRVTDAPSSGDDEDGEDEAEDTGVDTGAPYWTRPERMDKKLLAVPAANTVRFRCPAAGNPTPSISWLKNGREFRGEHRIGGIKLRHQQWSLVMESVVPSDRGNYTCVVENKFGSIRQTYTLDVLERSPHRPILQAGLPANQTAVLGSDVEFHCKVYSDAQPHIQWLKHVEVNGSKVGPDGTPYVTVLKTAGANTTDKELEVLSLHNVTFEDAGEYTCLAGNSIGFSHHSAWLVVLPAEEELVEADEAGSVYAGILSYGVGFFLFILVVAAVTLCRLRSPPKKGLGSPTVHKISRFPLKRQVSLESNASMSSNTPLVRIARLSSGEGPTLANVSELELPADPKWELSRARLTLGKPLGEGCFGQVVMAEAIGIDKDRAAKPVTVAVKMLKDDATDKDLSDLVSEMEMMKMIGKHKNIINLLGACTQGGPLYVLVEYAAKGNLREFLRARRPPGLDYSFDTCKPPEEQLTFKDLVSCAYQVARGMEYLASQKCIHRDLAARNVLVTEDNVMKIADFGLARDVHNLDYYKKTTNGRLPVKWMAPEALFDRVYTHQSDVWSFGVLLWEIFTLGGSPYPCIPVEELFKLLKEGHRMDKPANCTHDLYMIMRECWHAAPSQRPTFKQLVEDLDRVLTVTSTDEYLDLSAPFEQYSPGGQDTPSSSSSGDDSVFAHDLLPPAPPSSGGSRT
T13 sequence (P36897 34-503): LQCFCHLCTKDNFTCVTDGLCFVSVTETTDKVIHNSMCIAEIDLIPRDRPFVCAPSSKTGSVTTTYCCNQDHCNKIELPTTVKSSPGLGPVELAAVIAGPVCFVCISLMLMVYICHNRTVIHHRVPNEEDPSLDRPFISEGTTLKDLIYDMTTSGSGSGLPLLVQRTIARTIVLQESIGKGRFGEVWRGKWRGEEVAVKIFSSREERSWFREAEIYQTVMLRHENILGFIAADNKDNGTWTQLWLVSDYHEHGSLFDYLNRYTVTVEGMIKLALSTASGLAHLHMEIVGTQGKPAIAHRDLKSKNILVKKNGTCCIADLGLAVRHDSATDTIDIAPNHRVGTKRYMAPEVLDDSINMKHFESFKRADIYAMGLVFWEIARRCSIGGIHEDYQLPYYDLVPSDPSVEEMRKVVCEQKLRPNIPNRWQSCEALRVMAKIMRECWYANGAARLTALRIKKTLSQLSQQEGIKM
T29 sequence (Q15375 28-998): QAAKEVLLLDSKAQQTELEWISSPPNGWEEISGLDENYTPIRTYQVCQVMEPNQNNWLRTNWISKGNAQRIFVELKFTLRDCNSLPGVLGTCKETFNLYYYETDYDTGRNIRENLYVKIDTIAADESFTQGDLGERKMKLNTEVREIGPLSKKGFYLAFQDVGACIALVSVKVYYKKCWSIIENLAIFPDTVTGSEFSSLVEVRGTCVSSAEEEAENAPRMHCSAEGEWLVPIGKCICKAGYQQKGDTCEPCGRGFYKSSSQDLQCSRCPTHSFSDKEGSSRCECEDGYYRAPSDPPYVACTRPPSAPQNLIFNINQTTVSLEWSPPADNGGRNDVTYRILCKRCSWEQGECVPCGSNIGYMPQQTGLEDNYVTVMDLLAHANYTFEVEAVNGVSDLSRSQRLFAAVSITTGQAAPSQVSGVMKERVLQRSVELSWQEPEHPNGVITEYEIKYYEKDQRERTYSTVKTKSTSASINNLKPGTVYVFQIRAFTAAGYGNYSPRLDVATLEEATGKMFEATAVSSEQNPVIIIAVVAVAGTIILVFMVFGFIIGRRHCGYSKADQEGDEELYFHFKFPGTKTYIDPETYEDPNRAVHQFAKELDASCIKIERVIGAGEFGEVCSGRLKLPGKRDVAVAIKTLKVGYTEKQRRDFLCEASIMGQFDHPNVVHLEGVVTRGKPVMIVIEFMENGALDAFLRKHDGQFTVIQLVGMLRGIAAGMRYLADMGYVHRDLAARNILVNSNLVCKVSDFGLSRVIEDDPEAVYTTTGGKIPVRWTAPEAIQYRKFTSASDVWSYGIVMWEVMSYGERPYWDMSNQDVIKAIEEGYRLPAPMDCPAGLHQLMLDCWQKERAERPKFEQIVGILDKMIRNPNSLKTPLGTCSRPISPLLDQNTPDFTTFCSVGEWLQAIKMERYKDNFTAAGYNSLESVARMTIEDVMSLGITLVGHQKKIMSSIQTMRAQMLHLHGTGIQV
T32 sequence (P49137 whole entry): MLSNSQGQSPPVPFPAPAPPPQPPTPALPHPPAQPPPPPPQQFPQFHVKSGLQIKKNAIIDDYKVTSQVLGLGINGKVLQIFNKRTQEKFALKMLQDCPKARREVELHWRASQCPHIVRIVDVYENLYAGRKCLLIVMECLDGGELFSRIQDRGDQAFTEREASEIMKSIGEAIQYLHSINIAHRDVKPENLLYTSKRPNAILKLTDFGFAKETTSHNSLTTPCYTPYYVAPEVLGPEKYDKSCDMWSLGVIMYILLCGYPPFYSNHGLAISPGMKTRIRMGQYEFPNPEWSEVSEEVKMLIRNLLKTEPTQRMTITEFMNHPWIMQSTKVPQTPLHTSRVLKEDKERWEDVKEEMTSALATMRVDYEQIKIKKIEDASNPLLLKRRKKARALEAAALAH
T14 sequence (Q86UX6 whole entry): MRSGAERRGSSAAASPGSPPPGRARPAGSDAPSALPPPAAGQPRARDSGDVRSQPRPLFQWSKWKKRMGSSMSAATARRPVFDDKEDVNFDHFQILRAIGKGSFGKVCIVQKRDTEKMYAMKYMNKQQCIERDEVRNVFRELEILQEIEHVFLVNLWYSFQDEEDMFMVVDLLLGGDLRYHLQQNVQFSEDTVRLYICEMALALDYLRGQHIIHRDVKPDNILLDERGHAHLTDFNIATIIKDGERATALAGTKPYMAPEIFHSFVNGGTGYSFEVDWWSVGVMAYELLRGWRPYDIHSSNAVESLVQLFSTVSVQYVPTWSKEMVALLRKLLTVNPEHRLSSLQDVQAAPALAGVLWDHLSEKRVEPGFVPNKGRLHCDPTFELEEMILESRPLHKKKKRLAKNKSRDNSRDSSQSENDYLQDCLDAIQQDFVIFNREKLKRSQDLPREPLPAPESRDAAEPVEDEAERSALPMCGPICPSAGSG

SMILES: Nc1ccc(N=Nc2ccccc2)c(N)n1 [phenazopyridine, 2,6-diamino-3-(phenylazo)pyridine]
- % of control (remaining binding) [1]: 92
- toxicity (signal in the presence of propidium iodide) [2]: without any toxicity
- kinase inhibition [3]: 100
- kinase inhibition [4]: 100
- kinase inhibition [5]: 100
- kinase inhibition [6]: 90
- kinase inhibition [7]: 93
- kinase inhibition [8]: 91
- kinase inhibition ([9]; CSNK1G3, 10 µM): 100
- remaining binding at 10 µM ([9]; Casein kinase 1 isoform γ 3 (CK1), read-out: Kinome scan (% of control at 10 µM)): 44%
- kinase inhibition [10]: 63
- kinase inhibition [11]: 100
- remaining binding (% of control) [12]: 100
- kinase inhibition [13]: 80
- kinase inhibition [14]: 100
- kinase inhibition [15]: 100
- kinase inhibition [16]: 96
- kinase inhibition [17]: 100
- remaining binding (% of control) ([18]; TYK2(JH2domain-pseudokinase), 10 µM): 16
- remaining binding at 10 µM ([18]; TYK2 as printed (Table S4: JH2domain-pseudokinase), read-out: % Of control): 16%
- kinase inhibition [19]: 81
- percent of control (remaining binding) ([20]; 10 µM): 27
- remaining binding at 10 µM ([20]; read-out: Kinome scan (% of control at 10 µM)): 27%
- kinase inhibition [21]: 100
- kinase inhibition [22]: 100
- kinase inhibition [23]: 99
- kinase inhibition [24]: 100
- kinase inhibition [25]: 100
- kinase inhibition [26]: 84
- kinase inhibition [27]: 100
- kinase inhibition [28]: 94
- kinase inhibition [29]: 100
- kinase inhibition [30]: 91
- kinase inhibition [31]: 100
- kinase inhibition [32]: 100
- kinase inhibition [33]: 86
- kinase inhibition [34]: 100
